Data: paper PMC2747021, “Synergistic Antibacterial and Anti-Inflammatory Activity of Temporin A and Modified Temporin B In Vivo” (PLoS ONE, 2009)
No end group written: not given here.

Legend:
[1] = system: Escherichian coli; details: 20 h
[2] = system: Staphilococcus aureus 007; details: 20 h
[3] = system: Staphilococcus.aureus A170; details: single peptide; MIC100, MH broth, about 10^6 CFU/ml, 37°C 20 h, absorbance 600 nm, triplicate
[4] = system: gram negative bacteria; details: for antimicrobial activity against gram negative bacteria: in words, data not shown
[5] = system: Staphilococcus .aureus A172; details: 20 h
[6] = system: Listeria monocytogenes; details: 20 h
[7] = system: Salmonella enterica serovar Paratyphi; assay: Antibacterial activity, MIC100 broth dilution; type: cell-based; details: single peptide; MIC100, MH broth, about 10^6 CFU/ml, 37°C 20 h, absorbance 600 nm, triplicate
[8] = system: gram positive bacteria; assay: Antibacterial activity, summary for gram positive bacteria; type: cell-based; details: for antimicrobial activity against gram positive bacteria: in words, approximately to the same extent as temporin A, data not shown
Excerpt: The study included the following species: Staphylococcus aureus (isolate A170, A172, 007), Listeria monocytogenes, Salmonella enterica serovar Paratyphi, Salmonella enterica serovar Typhimurium, Escherichia coli. Isolates were obtained from patients hospitalized at the Medical School of the University of Naples. Specimen were confirmed by PCR assay of the genes sea (S. aureus), MonoA (L. monocytogenes), abe (S. enterica serovar Paratyphi), FliC (S. enterica serovar Typhimurium), sat (E. coli) [20]–[23]. Bacteria were grown at 37°C in TSB medium (S. aureus and L. monocytogenes) or LB medium (the remaining bacterial species) (Difco, Becton Dickinson, Sparks, MD), harvested while in exponential phase (OD600 nm; 0-6-0.8), centrifuged (8×10^3 g for 10 min), washed with saline (0.15 M NaCl) and resuspended in saline (10^6–10^7 CFU/ml).
Bacteria were grown at 37°C in TSB (S. aureus and L. monocytogenes) or in LB medium (the remaining bacterial species), harvested while in exponential phase (OD600 nm; 0-6-0.8), centrifuged (8×10^3 g for 10 min), washed with saline, resuspended in Muller Hinton (MH) broth at the concentration of approximately 10^6 CFU/ml and distributed, in triplicate, into 96 well plates (60 µl/well), mixed with twofold dilutions of the antimicrobial (TA: 5–100 µg, 40 µl/well; TB-YK: 4–100 µg, 40 µl/well; TA 5 µg+TB-YK 8 µg, 40 µl/well and incubated at 37°C for 20 h. The minimal concentration of the antimicrobial at which 100% inhibition of growth was observed (MIC100) was determined by measuring the absorbance at 600 nm (Biorad microplate reader model 680, Hercules, CA). The antibacterial activity was measured by spotting an aliquot (10 µl) of each well on TSA or LB agar and counting the CFU. A potential synergism between temporins was evaluated by adding combinations of two temporins in a serial twofold dilutions (TA: 5–100 µg;TB-YK: 4–100 µg; 40 µl/well) to wells containing 10^5 CFU/well in 60 µl. The presence of synergism was established as described.

| Substance | MIC [1] [µg/mL] | MIC [2] [µg/mL] | MIC [3] [µg/mL] | MIC ([4]; 20 h) [µg/mL] | MIC [5] [µg/mL] | MIC [6] [µg/mL] | MIC [7] [µg/mL] | MIC ([8]; range over the gram positive bacteria tested) [µg/mL] | antimicrobial activity against gram negative bacteria [4] | antimicrobial activity against gram positive bacteria [8] |
| --- | --- | --- | --- | --- | --- | --- | --- | --- | --- | --- |
| FLPLIGRVLSGIL-NH2 [TA, temporin A] | 125 | 10 | 10 | 125 to 400 | 20 | 30 | 400 | 10 to 30 | – | – |
| H-LLPI VGNLLKSLL- NH2 [TB, temporin B, synthetic temporin B in its native form] | – | – | – | – | – | – | – | – | totally inactive | active |
| H-YLLPI VGNLLKSLL- NH2 [TB-Y, temporin B with one extra tyrosine residue at the N-terminus] | – | – | – | – | – | – | – | – | totally inactive | active |
